Experiments:
[1] = system: Acinetobacter baumannii; experiment: Inhibition of biofilm formation in Acinetobacter baumannii at 100 uM incubated for 24 hrs by crystal violet staining based microtiter plate method; type: functional
[2] = system: Staphylococcus aureus; experiment: Inhibition of biofilm formation in methicillin-resistant Staphylococcus aureus ATCC 43300 incubated for 24 hrs by crystal violet staining based microtiter plate method; type: functional, organism-based; settings: ATCC 43300, 24 h
[3] = system: CCD-18Co; experiment: Cytotoxicity against human CCD-18Co cells assessed as reduction in cell viability at 50 uM measured after 1 days by MTT assay relative to control; type: cell-based; settings: 24 h, time 1 day
[4] = system: CCD-18Co; experiment: Cytotoxicity against human CCD-18Co cells assessed as reduction in cell viability at 12.5 uM measured after 1 days by MTT assay relative to control; type: cell-based; settings: 24 h, time 1 day
[5] = system: Staphylococcus aureus; experiment: Inhibition of biofilm formation in methicillin-resistant Staphylococcus aureus ATCC 43300 at 100 uM incubated for 24 hrs by crystal violet staining based microtiter plate method; type: functional
[6] = system: CCD-18Co; experiment: Cytotoxicity against human CCD-18Co cells assessed as reduction in cell viability at 25 uM measured after 1 days by MTT assay relative to control; type: cell-based; settings: 24 h, time 1 day

SMILES	inhibition at 100 µM [1] [%]	IC50 [2] [µM]	Activity [3]	Activity [4]	inhibition at 100 µM [5] [%]	Activity [6]
COc1cc(-c2cc(-c3nc4ccccc4c(=O)[nH]3)nc(N)n2)cc(OC)c1OC	< 25	–	–	–	–	–
Nc1nc(-c2cccc(Br)c2)cc(-c2nc3ccccc3c(=O)[nH]2)n1	< 25	20.7	Toxic	Toxic	> 50	–
COc1cc(OC)c(-c2cc(-c3nc4ccccc4c(=O)[nH]3)nc(N)n2)c(OC)c1	< 25	21.2	Non-Toxic	Non-Toxic	> 50	Non-Toxic
COc1cc(OC)cc(-c2cc(-c3nc4ccccc4c(=O)[nH]3)nc(N)n2)c1	< 25	50.5	–	–	> 50	–
Nc1nc(-c2nc3ccccc3c(=O)[nH]2)cc(-c2ccc(Cl)cc2Cl)n1	< 25	42.7	–	–	> 50	–
Nc1nc(-c2ccc(C(F)(F)F)cc2)cc(-c2nc3ccccc3c(=O)[nH]2)n1	< 25	86.5	–	–	> 50	–
Nc1nc(-c2ccc(Cl)cc2)cc(-c2nc3ccccc3c(=O)[nH]2)n1	< 25	–	–	–	< 50	–
Nc1nc(-c2ccc(Br)cc2)cc(-c2nc3ccccc3c(=O)[nH]2)n1	< 25	47.3	–	–	> 50	–
Nc1nc(-c2cccc(OCc3ccccc3)c2)cc(-c2nc3ccccc3c(=O)[nH]2)n1	< 25	–	–	–	–	–
Nc1nc(-c2nc3ccccc3c(=O)[nH]2)cc(-c2ccccc2Cl)n1	< 25	56.2	–	–	> 50	–
Nc1nc(-c2ccc(F)cc2)cc(-c2nc3ccccc3c(=O)[nH]2)n1	< 25	–	–	–	< 50	–
Nc1nc(-c2nc3ccccc3c(=O)[nH]2)cc(-c2ccco2)n1	< 25	56.9	–	–	> 50	–
COc1ccc(-c2cc(-c3nc4ccccc4c(=O)[nH]3)nc(N)n2)cc1OC	< 25	–	–	–	–	–
COc1cccc(-c2cc(-c3nc4ccccc4c(=O)[nH]3)nc(N)n2)c1	< 25	84.8	–	–	> 50	–
Nc1nc(-c2ccncc2)cc(-c2nc3ccccc3c(=O)[nH]2)n1	< 25	–	–	–	< 50	–
Nc1nc(-c2nc3ccccc3c(=O)[nH]2)cc(-c2cccc3ccccc23)n1	< 25	–	–	–	–	–
Nc1nc(-c2ccccc2)cc(-c2nc3ccccc3c(=O)[nH]2)n1	< 25	34.4	–	–	> 50	–
Nc1nc(-c2ccc(OCc3ccccc3)cc2)cc(-c2nc3ccccc3c(=O)[nH]2)n1	< 25	37.3	–	–	> 50	–
Nc1nc(-c2nc3ccccc3c(=O)[nH]2)cc(-c2cccs2)n1	< 25	71	–	–	< 50	–
Cc1ccc(-c2cc(-c3nc4ccccc4c(=O)[nH]3)nc(N)n2)cc1	< 25	–	–	–	–	–
COc1ccc(-c2cc(-c3nc4ccccc4c(=O)[nH]3)nc(N)n2)c(OC)c1	< 25	38.4	–	–	> 50	–
CSc1ccc(-c2cc(-c3nc4ccccc4c(=O)[nH]3)nc(N)n2)cc1	< 25	22.4	–	–	> 50	–

From ChEMBL document CHEMBL4665809, “Synthesis and biofilm inhibition studies of 2-(2-amino-6-arylpyrimidin-4-yl)quinazolin-4(3H)-ones” (Bioorg Med Chem Lett, 2020)
